The values that follow come from US4205171A, “Aminomethanobenzazocines and nitromethanobenzazocines” (Sterling Drug Inc., priority 1978, dated 1980).

A short description of data set [1]: Intravenous administration in the dog (unconsciousness, heart rate, blood pressure). It counts as in vivo.
In data set [2] the test system is acetylcholine-induced writhing. The data set can be described thus: Anti-acetylcholine writhing test (analgesia). Format: in vivo, mice. Conditions: for ED50: Mus musculus, 20 min, mice; for Oral:Parenteral Potency Ratio: peroral ED50 / subcutaneous ED50, anti-acetylcholine test. How it is done: In this test the ability of test compounds to prevent acetylcholine-induced writhing in mice is determined. The following is an adaptation of the method of Collier and co-workers (Brit. J. Pharmacol. Chemother., 32, 295(1968)) by Anne K. Pierson. Anti-acetylcholine Writhing Test
This response has also been called writhing. Animals are pretreated with test compounds (20 minutes for both subcutaneous and oral routes) and observed for two minutes immediately following the administration of acetylcholine. Mice not responding during the two-minute observation period are scored protected while those responding one or more times are scored not protected. Test compounds are screened at doses of 75 and 25 milligrams per kilogram subcutaneously or 150 and 50 mlligrams per kilogram orally. […] ED50 values for active compounds are estimated by probit analysis of quantal scores for 4 or more dosage levels using 15 animals per dose. Vehicle-pretreated control animals are tested concurrently with each run of 15 experimental animals.

The subject of data set [3] is phenazocine (agonist effect in rat tail-flick). The data set can be described thus: Tail-flick antagonist test against phenazocine. Conditions: for ED50: Rattus norvegicus, sc, 10 min, read-out: Tail-flick Antagonist AD50.
A short description of data set [4]: Irritation at the injection site. It counts as in vivo. Conditions: rabbits. The text has this:
A still further important difference is the comparative irritation at the injection site of pentazocine and the compound of Example 1B. The threshold irritation concentration of the latter in rabbits was 2% and of pentazocine, 0.5%.

Data set [5] relates to tail-flick response to thermal stimulus. The data set can be described thus: Tail-flick agonist test. Format: in vivo. Conditions: rats, subcutaneous; for Tail-flick Agonist ED50: 30 minutes after injection. On the procedure: Rats normally respond to a thermal stimulus applied to the tail by flicking their tails out from under the heat source. The intensity of the stimulus utilized is one which produces control response-times (CRT) of 2-4 seconds. Experimental response-times (ERT) are determined 30 minutes after subcutaneous injections. […] Therefore, the maximum possible increase (MPI) in response-time for any given animal is 20 minus the CRT. The average % effect, or % of the maximum possible increase (%MPI) obtained after any given test compound treatment is calculated by the formula [formula] […] Exptl.

Data set [6] in a line: Tests for analgesia, comparison with cyclazocine and pentazocine. Format: in vivo. Conditions: both subcutaneously and orally. From the text: The compound of Example 1B having in the free base form the structural formula [drawing 14] is the preferred species of this invention and the biological properties thereof have been carefully compared with those of pentazocine and cyclazocine.

The mark [7] stands for this setting: po, peroral, read-out: Peroral ED50, anti-acetylcholine test.
Setting [8] is: sc, subcutaneous, 20 minutes pretreatment, read-out: ED50, anti-acetylcholine writhing test.

Structures are written as SMILES. Structures can show the parent of a compound that is named as a salt. Where two headings read alike, the source gives them in different places.

For `C[C@H]1[C@H]2Cc3ccc(N)cc3[C@]1(C)CCN2CC1CC1` (relative stereo) [Example 1B, 8-amino-3-(cyclopropylmethyl)-1,2,3,4,5,6-hexahydro-cis-6,11-dimethyl-2,6-methano-3-benzazocine dihydrochloride], the “Heart rate and blood pressure” value in data set [1] was “without compromising heart rate or blood pressure”. In addition, in data set [1], the Salivation and tremors entry was “Salivation and tremors were observed”. Also, the Unconsciousness entry in data set [1] was “produced unconsciousness equivalent to a light plane of anesthesia”. Further, the ED50 was determined as 3.2 mg/kg in data set [2] (setting [7]), 0.8 mg/kg in data set [2] (setting [8]) and 2.7 mg/kg in data set [3]. Also, the “Oral:Parenteral Potency Ratio” value in data set [2] worked out at 4. Further, the Threshold irritation concentration in data set [4] turned out to be 2%.
`C[C@H]1[C@H]2Cc3ccc(NCC4CC4)cc3[C@]1(C)CCN2CC1CC1` (relative stereo) [Example 2E, 3-(cyclopropylmethyl)-8-(cyclopropylmethylamino)-1,2,3,4,5,6-hexahydro-cis-6,11-dimethyl-2,6-methano-3-benzazocine hydrochloride]: the ED50 stood at 0.7 mg/kg in data set [2] (setting [8]) and 8 mg/kg in data set [3].
Take `CNc1ccc2c(c1)[C@]1(C)CCN(CC3CC3)[C@H](C2)[C@@H]1C` (relative stereo) [Example 3B, 3-(cyclopropylmethyl)-1,2,3,4,5,6-hexahydro-cis-6,11-dimethyl-8-(methylamino)-2,6-methano-3-benzazocine dihydrochloride ethanolate hydrate]: the “Tail-flick Agonist % MPI” value in data set [5] (at 120 mg./kg.) was 35%. For the same molecule, the ED50 amounted to 0.44 mg/kg in data set [2] (setting [8]) and 1.3 mg/kg in data set [3].
Take `C[C@H]1[C@H]2Cc3ccc(N(C)C)cc3[C@]1(C)CCN2CC1CC1` (relative stereo) [Example 4F, 3-cyclopropylmethyl-8-dimethylamino-cis-6,11-dimethyl-1,2,3,4,5,6-hexahydro-2,6-methano-3-benzazocine dihydrochloride]: in data set [5] (at 60 mg./kg.), the “Tail-flick Agonist % MPI” value worked out at 43%. Moreover, in data set [2] (setting [8]), the ED50 turned out to be 0.79 mg/kg. Also, the “Tail-flick Antagonist % Antagonism” value in data set [3] (rats, subcutaneous, against phenazocine, at 10 mg./kg.) worked out at 30%; in data set [3] (rats, subcutaneous, against phenazocine, at 80 mg./kg.), 32%.
For `CC(C)CN1CC[C@@]2(C)c3cc(N)ccc3C[C@@H]1[C@@H]2C` (relative stereo) [Example 5C, 8-amino-1,2,3,4,5,6-hexahydro-3-isobutyl-cis-6,11-dimethyl-2,6-methano-3-benzazocine dihydrochloride], the ED50 in data set [2] (setting [8]) stood at 1.5 mg/kg; in data set [3] it was 9.4 mg/kg.
In the case of `CCCN1CC[C@@]2(C)c3cc(N)ccc3C[C@@H]1[C@@H]2C` (relative stereo) [Example 6C, 8-amino-cis-6,11-dimethyl-1,2,3,4,5,6-hexahydro-3-propyl-2,6-methano-3-benzazocine dihydrochloride sesquihydrate], the “Tail-flick Agonist ED50” value in data set [5] is listed as “Inactive at 60”. For the same molecule, the ED50 in data set [2] (setting [8]) amounted to 5.6 mg/kg; in data set [3] it was 2 mg/kg.
In the case of `C[C@H]1[C@H]2Cc3ccc(NCc4ccccc4)cc3[C@]1(C)CCN2CC1CC1` (relative stereo) [Example 7, 3-(cyclopropylmethyl)-1,2,3,4,5,6-hexahydro-cis-6,11-dimethyl-8-benzylamino-2,6-methano-3-benzazocine dihydrochloride], the ED50 in data set [2] (setting [8]) was 1.6 mg/kg; in data set [3], 1 mg/kg.
For `C=CCN1CC[C@@]2(C)c3cc(N)ccc3C[C@@H]1[C@@H]2C` (relative stereo) [Example 8C, 8-amino-1,2,3,4,5,6-hexahydro-cis-6,11-dimethyl-3-(2-propenyl)-2,6-methano-3-benzazocine dihydrochloride] the same measures were 2.5 mg/kg and 1.5 mg/kg.
Take `CCNc1ccc2c(c1)[C@]1(C)CCN(CC3CC3)[C@H](C2)[C@@H]1C` (relative stereo) [Example 9B, 3-(cyclopropylmethyl)-8-(ethylamino)-1,2,3,4,5,6-hexahydro-cis-6,11-dimethyl-2,6-methano-3-benzazocine]: the “Tail-flick Agonist % MPI” value in data set [5] (at 60 mg./kg.) was determined as 25%; in data set [5] (at 120 mg./kg., different sample), 21%. The ED50 in data set [2] (setting [8]) is 1.3 mg/kg; in data set [3], 10 mg/kg. The “Tail-flick Antagonist % Antagonism” value in data set [3] (rats, subcutaneous, against phenazocine, at 80 mg./kg., different sample) came to 19%.
For the molecule `CCCNc1ccc2c(c1)[C@]1(C)CCN(CC3CC3)[C@H](C2)[C@@H]1C` (relative stereo) [Example 10B, 3-(cyclopropylmethyl)-1,2,3,4,5,6-hexahydro-cis-6,11-dimethyl-8-(propylamino)-2,6-methano-3-benzazocine], the ED50 in data set [2] (setting [8]) is 1.2 mg/kg. In addition, the “Tail-flick Antagonist % Antagonism” value in data set [3] (rats, subcutaneous, against phenazocine, at 5 mg./kg., different sample) was found to be 32%; in data set [3] (rats, subcutaneous, against phenazocine, at 40 mg./kg.), 31%.
Consider `CCCCNc1ccc2c(c1)[C@]1(C)CCN(CC3CC3)[C@H](C2)[C@@H]1C` (relative stereo) [Example 11B, 8-(butylamino)-3-(cyclopropylmethyl)-1,2,3,4,5,6-hexahydro-cis-6,11-dimethyl-2,6-methano-3-benzazocine], for which the ED50 in data set [2] (setting [8]) is 1 mg/kg.
Take `CC[C@H]1[C@H]2Cc3ccc(N)cc3[C@]1(CC)CCN2CC1CC1` (relative stereo) [Example 12H, 8-amino-3-(cyclopropylmethyl)-cis-6,11-diethyl-1,2,3,4,5,6-hexahydro-2,6-methano-3-benzazocine dihydrochloride]: the figures for the ED50 in data set [2] (setting [8]) and in data set [3] were 1.3 mg/kg and 3.8 mg/kg, respectively.
Take `C[C@H]1[C@H]2Cc3ccc(N)cc3[C@]1(C)CCN2C` (relative stereo) [Formula G, α-2'-amino-2,5,9-trimethyl-6,7-benzomorphan, reference compound]: in data set [5], the “Tail-flick Agonist ED50” value is given as “Inactive at 120”. The ED50 in data set [2] (setting [8]) amounted to 7.5 mg/kg. The Narcotic antagonist activity entry in data set [3] (rat, in vivo) is on record as “not a narcotic antagonist”. The “Tail-flick Antagonist AD50” value in data set [3] (rats, subcutaneous, against phenazocine) is on record as “Inactive at 80”.
`C[C@H]1[C@H]2Cc3ccc(O)cc3[C@]1(C)CCN2CC1CC1` (relative stereo) [cyclazocine, reference compound]: the “Tail-flick Agonist ED50” value in data set [5] is listed as “Inactive at 120”. Moreover, the “Heart rate and blood pressure” value in data set [1] is “increases in heart rate and blood pressure”. Besides, in data set [1], the Unconsciousness entry is given as “produced unconsciousness”. The ED50 was 5.3 mg/kg in data set [2] (setting [7]), 0.15 mg/kg in data set [2] (setting [8]) and 0.028 mg/kg in data set [3]. Moreover, in data set [2], the “Oral:Parenteral Potency Ratio” value is 35.
Turning to `CC(C)=CCN1CCC2(C)c3cc(O)ccc3CC1C2C` (stereo not drawn) [pentazocine, reference compound], the “Potency relative to the compound of Example 1B in the tests for analgesia” value in data set [6] is on record as “significantly less potent”. The “Tail-flick Agonist ED50” value in data set [5] is on record as “Inactive at 120”. For the same molecule, the Unconsciousness result in data set [1] is “without unconsciousness”. Further, in data set [1] (single dose tested), the Convulsions entry was “induced convulsions”. Also, the ED50 was determined as 51 mg/kg in data set [2] (setting [7]), 2.2 mg/kg in data set [2] (setting [8]) and 6.3 mg/kg in data set [3]. Also, the “Oral:Parenteral Potency Ratio” value in data set [2] is reported as 23. Besides, the Threshold irritation concentration in data set [4] was 0.5%.
